Assay results from patent US20250057748A1, “FORMULATIONS OF DIHYDROKAEMPFEROL” (DEBUT BIOTECHNOLOGY, INC., priority 2023, published 2025).

Tests used:
[1] = system: IL-6; test: Anti-inflammatory activity: IL-6 ELISA in LPS/Poly:IC stressed keratinocytes; type: cell-based, Human; conditions: for % Reduction vs Treated / IL-6: stimulated NHEK, 24 hours
Experimental: Normal Human Epidermal Keratinocytes (NHEK) were stressed with a cocktail of lipopolysaccharide (LPS) and Polyinosinic-polycytidylic acid sodium salt (Poly:IC), external aggressors capable of inducing an inflammatory response. Stressed cells were subsequently treated with test articles and incubated for 24 hours. Reduction in inflammatory markers was measured by ELISA and % reduction calculated relative to solvent control.

[2] = biological target: T1, human neutrophil elastase (Homo sapiens, UniProt P08246); test: Elastase enzyme inhibition; type: biochemical
T1 sequence (P08246 30-267): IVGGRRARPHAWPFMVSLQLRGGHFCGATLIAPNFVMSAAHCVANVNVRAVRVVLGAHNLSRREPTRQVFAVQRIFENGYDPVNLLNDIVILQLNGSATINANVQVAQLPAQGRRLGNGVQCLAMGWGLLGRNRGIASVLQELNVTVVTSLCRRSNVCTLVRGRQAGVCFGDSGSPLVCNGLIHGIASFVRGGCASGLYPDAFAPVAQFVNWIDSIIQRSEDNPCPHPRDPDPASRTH
Experimental: The assay was conducted to evaluate the elastase enzyme inhibition activity of compositions comprising dihydrokaempferol.
Neutrophil infiltration and neutrophil elastase are both increased in the skin in response to UV stress. […] Therefore, inhibition of this enzyme, particularly in combination with antioxidant activity, is effective in delaying wrinkle development and aiding in maintaining skin integrity. This assay is measures release of 4-nitroaniline from an Me-Suc-Ala-Ala-Pro-Val-pNA by human neutrophil elastase and can be quantified at 405 nm by comparing to solvent control.

[3] = system: Elastin; test: Anti-aging: elastin ELISA in hDF; type: cell-based, Human
Experimental: Human dermal fibroblasts (hDF) were treated with test article of interest. Elastin was quantified by ELISA.

[4] = DPPH antioxidant activity assay (organic medium); type: biochemical
From the text: The 2,2-diphenyl-1-picrylhydrazyl (DPPH) antioxidant assay is designed to evaluate the antioxidant activity of compositions comprising dihydrokaempferol in an organic medium. 2,2-diphenyl-1-picrylhydrazyl (DPPH) is a stable free radical used to evaluate free radical scavenging capacity of a material. In the presence of an antioxidant DPPH is reduced, resulting in the formation of a colorless solution. Reduction of absorbance at 517 nm is standardized to solvent control as an indication of DPPH scavenging.

[5] = system: PPAR-72; conditions: stimulates glucose uptake; Zhang et al. 2011; cited from earlier work
[6] = system: Fibroblast Growth Factor 2 (FGF2); test: Differential gene expression in keratinocytes; type: cell-based; conditions: normal human epidermal keratinocytes, 1% DHK
From the text: (§1) Log 2fold changes are detailed in FIG. 4. Table 13, provided below, highlights certain examples of differential gene expression in normal human epidermal keratinocytes treated with compositions comprising 1% DHK.

[7] = system: Thrombospondin 4 (THBS4); test: Differential gene expression in keratinocytes; type: cell-based; conditions: normal human epidermal keratinocytes, 1% DHK
From the text: as §1

[8] = system: Tumor Necrosis Factor (TNF); test: Differential gene expression in keratinocytes; type: cell-based; conditions: normal human epidermal keratinocytes, 1% DHK
From the text: as §1

[9] = system: C-X-C Motif Chemokine Ligand 1 (CXCL1); test: Differential gene expression in keratinocytes; type: cell-based; conditions: normal human epidermal keratinocytes, 1% DHK
From the text: as §1

[10] = system: Vascular Endothelial Growth Factor A (VEGFA); test: Differential gene expression in keratinocytes; type: cell-based; conditions: normal human epidermal keratinocytes, 1% DHK
From the text: as §1

[11] = system: Transient Receptor Potential Cation Channel Subfamily (TRPV6); test: Differential gene expression in keratinocytes; type: cell-based; conditions: normal human epidermal keratinocytes, 1% DHK
From the text: as §1

[12] = system: Interleukin 6 (IL6); test: Differential gene expression in keratinocytes; type: cell-based; conditions: normal human epidermal keratinocytes, 1% DHK
From the text: as §1

[13] = system: Interleukin 24 (IL24); test: Differential gene expression in keratinocytes; type: cell-based; conditions: normal human epidermal keratinocytes, 1% DHK
From the text: as §1

[14] = system: C-X-C Motif Chemokine Ligand 2 (CXCL2); test: Differential gene expression in keratinocytes; type: cell-based; conditions: normal human epidermal keratinocytes, 1% DHK
From the text: as §1

[15] = Venditti et al. 2013; Liang et al. 2020; cited from earlier work
[16] = Dihydrokaempferol stability at 70° C. in various solvents; type: physicochemical
Experimental: Table 2, provided below, provides stability data for compositions comprising dihydrokaempferol in various solvents, when stored at 70° C. for up to one (1) month.

[17] = system: Sirtuin-1; conditions: reduces oxidative stress and inflammatory response; Zhang et al. 2021; cited from earlier work
[18] = system: Human dermal fibroblasts (hDF); test: Wound healing: fibroblast regrowth after insert removal, image analysis; type: cell-based; conditions: 0.003% DHK
Experimental: Human dermal fibroblasts (hDF) were plated in the presence of a growth-preventing insert. The insert was subsequently removed and regrowth measured by image analysis.

[19] = ABTS antioxidant assay (aqueous medium); type: biochemical
From the text: The 2,2′-Azinobis [3-ethylbenzothiazoline-6-sulfonic acid]-diammonium salt (ABTS) antioxidant assay is designed to evaluate the antioxidant activity of compositions comprising dihydrokaempferol in an aqueous medium.
ABTS+ solution is generated as a free radical and used to measure relative ability of a compound to scavenge free radicals. Reduction of the absorbance at 734 nm was standardized to solvent control as an indication of ABTS+ scavenging.

[20] = system: macrophage cell lines; conditions: macrophage cell lines and skin; Venditti et al. 2013; Lee et al. 2013; cited from earlier work
[21] = system: Loricrin; test: Skin barrier marker by flow cytometry in hDF; type: cell-based, Human; conditions: 0.003% DHK
Experimental: (§2) Human dermal fibroblasts (hDF) were treated with test article of interest. Barrier markers of interest were measured by flow cytometry.

[22] = system: Filaggrin; test: Skin barrier marker by flow cytometry in hDF; type: cell-based, Human; conditions: 0.003% DHK
Experimental: as §2

[23] = Venditti et al. 2013; Liang et al. 2020; cited from earlier work; remark: listed apart in the source
[24] = mice; Liang et al. 2020; cited from earlier work
[25] = system: glycation; test: Glycation inhibition assay; type: biochemical
Experimental: The assay was conducted to evaluate the glycation inhibition activity of compositions comprising dihydrokaempferol.
Nonenzymatic glycation can occur when glucose reacts with proteins, forming a Schiff base intermediate that subsequently undergoes Amadori rearrangement to form glycosylated proteins, when they react with skin proteins to form Advanced Glycation End products (AGE). AGE formation can result in loss of skin elasticity and impaired cellular function. The glycation inhibition ability of a compound is measured by change in fluorescence at excitation/emission of 360 nm/420 nm relative to solvent control.

[26] = Solubility of dihydrokaempferol in various solvents; type: physicochemical
From the text: Table 1, provided below, provides solubility data for dihydrokaempferol in various solvents.

[27] = Isopropyl lauroyl sarcosinate, 1 month
[28] = Isopropyl lauroyl sarcosinate, 1 week

Lowest concentration inhibiting elastase enzyme activity [2]: 0.1 % w/w
inhibition at 0.02 % strength ([2]; 0.020 % w/w): 0%
inhibition at 0.1 % strength ([2]; 0.100 % w/w): 29.6%
inhibition at 0.5 % strength ([2]; 0.500 % w/w): 81.5%
IC50 elastase enzyme inhibition ([2]; calculated): 0.13 % w/w
IC50 antioxidant activity ([4]; DPPH, organic solvent system, calculated): 0.05 % w/w
% remaining ([16]; Dimethyl isosorbide, 1 month): 91%
Concentration (% w/w) 1 month ([16]; Dimethyl isosorbide, 1 month): 6.04 % w/w
% remaining ([16]; Dimethyl isosorbide, 1 week): 95%
Concentration (% w/w) 1 week ([16]; Dimethyl isosorbide, 1 week): 6.33 % w/w
Concentration (% w/w) Initial ([16]; Dimethyl isosorbide): 6.66 % w/w
% remaining ([16]; Ethoxydiglycol, 1 month): 84%
Concentration (% w/w) 1 month ([16]; Ethoxydiglycol, 1 month): 6.54 % w/w
% remaining ([16]; Ethoxydiglycol, 1 week): 94%
Concentration (% w/w) 1 week ([16]; Ethoxydiglycol, 1 week): 7.27 % w/w
Concentration (% w/w) Initial ([16]; Ethoxydiglycol): 7.74 % w/w
% remaining [16, 27]: 92%
Concentration (% w/w) 1 month [16, 27]: 7.71 % w/w
% remaining [16, 28]: 97%
Concentration (% w/w) 1 week [16, 28]: 8.14 % w/w
Concentration (% w/w) Initial ([16]; Isopropyl lauroyl sarcosinate): 8.40 % w/w
IC50 antioxidant activity ([19]; ABTS, aqueous solvent system, calculated): 0.0143 % w/w
IC50 glycation inhibition ([25]; calculated): 0.016 % w/w
Solubility (% w/w) ([26]; Solvent: 1,2 Propanediol): 0.00 % w/w
Solubility (% w/w) ([26]; Solvent: 1,2 heptanediol): 5.00 % w/w
Solubility (% w/w) ([26]; Solvent: 3-methyl-1,3-butanediol): 0.00 % w/w
Solubility (% w/w) ([26]; Solvent: Butylene glycol): 5.00 % w/w
Solubility (% w/w) ([26]; Solvent: C9-12 Alkane): 0.00 % w/w
Solubility (% w/w) ([26]; Solvent: C15-19 Alkane): 0.00 % w/w
Solubility (% w/w) ([26]; Solvent: Capric/Caprylic Triglyceride): 0.00 % w/w
Solubility (% w/w) ([26]; Solvent: Di(propylene glycol) dibenzoate): 0.00 % w/w
Solubility (% w/w) ([26]; Solvent: Dimethyl Isosoribide): 20.00 % w/w
Solubility (% w/w) ([26]; Solvent: Ethoxydiglycol): 25.00 % w/w
Solubility (% w/w) ([26]; Solvent: Isoamyl Laurate): 0.00 % w/w
Solubility (% w/w) ([26]; Solvent: Isopentyldiol): 5.00 % w/w
Solubility (% w/w) ([26]; Solvent: Isopropyl Lauroyl sarcosinate): 10.00 % w/w
Solubility (% w/w) ([26]; Solvent: Isopropyl Myristate): 0.00 % w/w
Solubility (% w/w) ([26]; Solvent: Jojoba Oil): 0.00 % w/w
Solubility (% w/w) ([26]; Solvent: Neopentyl Glycol Dihexanoate): 0.00 % w/w
Solubility (% w/w) ([26]; Solvent: Oleyl Alcohol): 0.00 % w/w
Solubility (% w/w) ([26]; Solvent: Pentylene glycol): 5.00 % w/w
Solubility (% w/w) ([26]; Solvent: Phenylpropanol): 0.00 % w/w
Solubility (% w/w) ([26]; Solvent: Propanediol): 5.00 % w/w
Solubility (% w/w) ([26]; Solvent: Squalene): 0.00 % w/w
Solubility (% w/w) ([26]; Solvent: Sunflower Oil): 0.00 % w/w
Solubility (% w/w) ([26]; Solvent: Tri C12-13 alkyl citrate): 0.00 % w/w
Solubility (% w/w) ([26]; Solvent: Tributyl citrate): 0.00 % w/w
Solubility (% w/w) ([26]; Solvent: Tributyl-O-acetylcitrate): 0.00 % w/w
Solubility (% w/w) ([26]; Solvent: Triethyl Citrate): 0.00 % w/w
Solubility (% w/w) ([26]; Solvent: Triethyl-O-acetylcitrate): 0.00 % w/w
Solubility (% w/w) ([26]; Solvent: Triisostearin): 0.00 % w/w
Solubility in words ([26]; in Helianthus Annuus (Sunflower) Seed Oil): insoluble
Solubility in words ([26]; in a number of other commonly used solvents): minimally soluble
Solubility in words ([26]; in capric/caprylic triglyceride): minimally soluble
Solubility in words ([26]; in dimethyl isosorbide, ethoxydiglycol, glycol, isopropyl lauroyl sarcosinate, pentylene glycol, 1,2 hexanediol, propanediol, butylene glycol, phenylpropanol, isopentyldiol, 1,2 heptanediol): soluble
Solubility in words ([26]; in isopropyl myristate): minimally soluble
Solubility in words ([26]; in oil): poorly soluble or insoluble
Solubility in words ([26]; in water): poorly soluble or insoluble
SMILES: O=C1c2c(O)cc(O)cc2O[C@H](c2ccc(O)cc2)[C@H]1O [dihydrokaempferol]
% Reduction vs Treated ([1]; 0.001% DHK): 31.32%
IL-6 ([1]; 0.001% DHK): 838.7 pg/mL
% Reduction vs Treated ([1]; 0.002% DHK): 43.70%
IL-6 ([1]; 0.002% DHK): 687.5 pg/mL
% Reduction vs Treated ([1]; 0.003% DHK): 64.79%
IL-6 ([1]; 0.003% DHK): 430.0 pg/mL
Reduction of inflammatory marker IL-6 (up to) ([1]; in vitro, summary of Table 9): up to 64.79%
Elastin ([3]; 0.001% DHK): 23.1 ng/mL
Elastin ([3]; 0.003% DHK): 16.6 ng/mL
Elastin ([3]; 0.005% DHK): 15.9 ng/mL
% Radical Inhibition ([4]; DPPH, 0.016 % w/w): 16.54%
% Radical Inhibition ([4]; DPPH, 0.031 % w/w): 31.00%
% Radical Inhibition ([4]; DPPH, 0.063 % w/w): 61.12%
Lowest concentration with antioxidant activity ([4]; organic solvent systems): 0.016 % w/w
Effect on PPAR-72 expression [5]: increases
Log2 Fold Change [6]: 1.82
Log2 Fold Change [7]: 3.30
Log2 Fold Change [8]: −3.39
Log2 Fold Change [9]: −1.91
Log2 Fold Change [10]: 2.32
Log2 Fold Change [11]: 2.19
Log2 Fold Change [12]: −5.54
Log2 Fold Change [13]: −2.01
Log2 Fold Change [14]: −4.19
Function as antioxidant [15]: antioxidant
Effect on Sirtuin-1 [17]: upregulates
Closure Rate 24 hr ([18]; 24 hr): 4.17
Closure Rate 48 hr ([18]; 48 hr): 9.40
% Radical Inhibition ([19]; ABTS, 0.00625 % w/w): 32.55%
% Radical Inhibition ([19]; ABTS, 0.0125 % w/w): 42.49%
% Radical Inhibition ([19]; ABTS, 0.025 % w/w): 56.17%
Lowest concentration with antioxidant activity ([19]; aqueous systems): 0.00625 % w/w
Anti-inflammatory activity [20]: anti-inflammatory activity
% Total Population [21]: 19.3%
% Total Population [22]: 42.2%
Function as anti-diabetic [23]: anti-diabetic
Treatment of severe acute pancreatitis [24]: treatment for severe acute pancreatitis
Lowest concentration inhibiting glycation [25]: 0.004 % w/w
% Glycation Inhibition ([25]; 0.004 % w/w): 25.05%
% Glycation Inhibition ([25]; 0.011 % w/w): 42.23%
% Glycation Inhibition ([25]; 0.033 % w/w): 64.87%
% Glycation Inhibition ([25]; 0.100 % w/w): 82.42%
